In BindingDB's records for patent US117808 (H. Lundbeck, 2023):
Values joined by “and” are separate entries in the source; they are usually repeats but may differ in a detail not shown here. Equal entries are not always repeated.

What was measured:
[1] = target: Leucine-rich repeat serine/threonine-protein kinase 2 (Homo sapiens, UniProt Q5S007); experiment: LRRK2 Wild-Type and G2019S Kinase Activity Assay
Procedure: (§1) The LRRK2 kinase was obtained from Invitrogen (Life Technologies Corporation) and comprises residue 970 to 2527 of the full length human wild-type LRRK2 kinase, or a similar sequence with the G2019S mutation. As discussed above, this mutation increases the kinase activity relative to the wild type. The kinase reactions were performed in a 20 uL volume in 384-well plates. The kinase reaction buffer consisted of 50 mM Tris pH 8.5, 0.01% BRIJ-35, 10 mM MgCl2, 1 mM EGTA, and 2 mM DTT.In the assay, 1 nM LRRK2 WT or 250 pM LRRK2 G2019S kinase in kinase reaction buffer was incubated with the test compound (typically at 0 to 30 uM) for 30 minutes before the kinase reaction was initiated by addition of 1.3 mM ATP and 0.4 uM fluorescein-LRRKtide. The reaction mixture (20 ul total volume) was incubated for 3.5 h (for LRRK2 WT) and 3 h (for LRRK2 G2019S) at 30 C., before the reaction was terminated by addition of 10 mM EDTA and 1 nM terbium-labelled anti-phospho-LRRKtide antibody (final volume […]). The mixture was further incubated for 30 minutes at RT. TR-FRET was measured by excitation of the terbium-donor with 340 nm light and subsequent (delay time 100 us) measurement of terbium and fluorescein emission at 495 nm and 520 nm, respectively, over a time window of 1000 us. The measurement was repeated 30 times for fluorescein and 30 times for terbium emission with a 1000 us time window between repeats. TR-FRET measurements were performed on a Biotek Synergy plate. The TR-FRET signal was calculated as the emission-ratio at 520 nm over 495 nm.

[2] = target: Leucine-rich repeat serine/threonine-protein kinase 2 [G2019S] (Homo sapiens, UniProt Q5S007, G2019S); experiment: LRRK2 Wild-Type and G2019S Kinase Activity Assay
Chain of Leucine-rich repeat serine/threonine-protein kinase 2 [G2019S] (Q5S007 whole entry G2019S): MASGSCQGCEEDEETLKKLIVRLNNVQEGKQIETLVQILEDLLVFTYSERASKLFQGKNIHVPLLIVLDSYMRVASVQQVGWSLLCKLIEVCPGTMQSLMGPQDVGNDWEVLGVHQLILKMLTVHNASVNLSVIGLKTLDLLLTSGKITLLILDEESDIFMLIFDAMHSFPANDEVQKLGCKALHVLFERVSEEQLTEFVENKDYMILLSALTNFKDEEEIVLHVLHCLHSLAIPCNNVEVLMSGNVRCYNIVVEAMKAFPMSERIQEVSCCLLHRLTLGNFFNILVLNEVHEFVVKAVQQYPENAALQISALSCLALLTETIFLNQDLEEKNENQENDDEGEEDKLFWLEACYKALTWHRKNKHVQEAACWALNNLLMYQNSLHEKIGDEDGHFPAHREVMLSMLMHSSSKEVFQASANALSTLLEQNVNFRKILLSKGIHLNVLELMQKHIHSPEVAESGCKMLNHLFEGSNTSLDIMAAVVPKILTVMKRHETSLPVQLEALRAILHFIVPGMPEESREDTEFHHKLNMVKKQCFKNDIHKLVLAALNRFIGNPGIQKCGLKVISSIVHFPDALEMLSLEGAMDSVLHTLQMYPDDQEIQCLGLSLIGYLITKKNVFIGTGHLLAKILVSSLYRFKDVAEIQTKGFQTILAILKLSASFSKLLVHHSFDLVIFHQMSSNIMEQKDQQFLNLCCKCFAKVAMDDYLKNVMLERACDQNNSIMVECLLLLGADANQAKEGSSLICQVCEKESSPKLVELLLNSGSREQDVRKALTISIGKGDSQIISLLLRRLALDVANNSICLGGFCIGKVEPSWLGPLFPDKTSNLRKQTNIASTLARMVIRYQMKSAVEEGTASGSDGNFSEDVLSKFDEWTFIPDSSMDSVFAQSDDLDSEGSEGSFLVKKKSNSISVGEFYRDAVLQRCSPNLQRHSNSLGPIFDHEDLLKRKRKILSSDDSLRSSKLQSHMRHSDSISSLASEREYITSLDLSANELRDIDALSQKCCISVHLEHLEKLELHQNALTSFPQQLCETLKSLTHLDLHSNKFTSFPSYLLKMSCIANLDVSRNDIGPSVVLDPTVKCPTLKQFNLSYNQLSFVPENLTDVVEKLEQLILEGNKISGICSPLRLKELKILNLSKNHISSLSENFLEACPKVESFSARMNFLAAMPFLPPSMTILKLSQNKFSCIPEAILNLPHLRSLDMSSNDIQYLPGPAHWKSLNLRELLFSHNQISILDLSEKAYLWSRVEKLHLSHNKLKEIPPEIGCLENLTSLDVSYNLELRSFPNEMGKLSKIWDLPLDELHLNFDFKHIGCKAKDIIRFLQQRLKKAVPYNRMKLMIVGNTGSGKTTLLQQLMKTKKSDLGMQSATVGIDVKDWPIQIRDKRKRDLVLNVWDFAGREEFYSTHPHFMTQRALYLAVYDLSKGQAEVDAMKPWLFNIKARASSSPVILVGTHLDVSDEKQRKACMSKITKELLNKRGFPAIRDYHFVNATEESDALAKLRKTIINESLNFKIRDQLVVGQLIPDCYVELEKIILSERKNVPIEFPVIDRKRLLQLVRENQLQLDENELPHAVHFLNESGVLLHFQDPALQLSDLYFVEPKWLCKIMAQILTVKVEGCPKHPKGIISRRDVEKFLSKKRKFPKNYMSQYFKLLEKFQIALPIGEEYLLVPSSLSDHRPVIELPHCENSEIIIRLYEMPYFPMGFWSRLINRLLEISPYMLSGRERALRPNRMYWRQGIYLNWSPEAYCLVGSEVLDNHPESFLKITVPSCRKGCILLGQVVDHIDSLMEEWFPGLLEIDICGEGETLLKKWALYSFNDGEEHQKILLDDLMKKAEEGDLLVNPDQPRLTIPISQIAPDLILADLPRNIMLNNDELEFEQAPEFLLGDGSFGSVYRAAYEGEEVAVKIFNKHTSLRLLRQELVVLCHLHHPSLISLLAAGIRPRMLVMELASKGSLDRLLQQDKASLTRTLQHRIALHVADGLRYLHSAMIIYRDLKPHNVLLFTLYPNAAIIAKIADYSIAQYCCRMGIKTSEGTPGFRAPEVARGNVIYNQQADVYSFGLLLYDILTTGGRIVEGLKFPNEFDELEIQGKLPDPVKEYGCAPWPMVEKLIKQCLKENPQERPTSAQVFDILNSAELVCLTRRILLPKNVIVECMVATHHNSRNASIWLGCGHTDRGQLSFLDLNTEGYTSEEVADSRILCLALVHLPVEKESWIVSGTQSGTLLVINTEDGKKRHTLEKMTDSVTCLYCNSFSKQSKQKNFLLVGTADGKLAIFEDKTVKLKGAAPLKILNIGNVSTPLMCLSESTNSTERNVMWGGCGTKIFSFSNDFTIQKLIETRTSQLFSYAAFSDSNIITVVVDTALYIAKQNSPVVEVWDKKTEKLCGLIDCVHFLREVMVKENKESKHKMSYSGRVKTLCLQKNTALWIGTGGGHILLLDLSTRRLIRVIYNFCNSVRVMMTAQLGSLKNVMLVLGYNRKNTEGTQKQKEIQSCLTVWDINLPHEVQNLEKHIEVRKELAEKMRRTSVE
Procedure: as §1

Chain of Leucine-rich repeat serine/threonine-protein kinase 2 (Q5S007 whole entry): as the sequence (Q5S007 whole entry G2019S) above, with S2019G counted along it

| Compound | IC50 [1] | IC50 [2] |
| --- | --- | --- |
| Clc1nn2c3nc(ncc13)Nc1c(nn([C@@H]3CCOC4(CC4)C3)c1Br)OCCC2 [US11780851, Example 65] | 4.8 nM | 1.7 nM |
| CCc1c2c(nn1[C@H]1CCOCC1F)OCCCn1nc(Cl)c3cnc(nc31)N2 (some centres undefined) [US11780851, Example 56] | 4.9 nM | 2 nM |
| Cc1c2c(nn1C1CCOCC1)OCCCn1nc(Br)c3cnc(nc31)N2 [US11780851, Example 6] | 8 nM | 2.2 nM |
| Cc1c2c(nn1C1CCOCC1)OCCCn1nc(Cl)c3cnc(nc31)N2 [US11780851, Example 20] | 9.8 nM | 2.4 nM |
| Cc1c2c(nn1[C@@H]1CCOC[C@@H]1F)OCCCn1nc(Cl)c3cnc(nc31)N2 [US11780851, Example 32] | 15 nM | 6.1 nM |
| Cc1c2c(nn1[C@H]1CC1(F)F)OCCCn1nc(Cl)c3cnc(nc31)N2 [US11780851, Example 40] | 28 nM | 12 nM |
| Cc1c2c(nn1[C@H]1CCOC3(CC3)C1)OCCCn1nc(Cl)c3cnc(nc31)N2 [US11780851, Example 54] | 2.6 nM | 0.88 nM |
| Cc1c2c(nn1[C@H]1CCOC[C@@H]1C)OCCCn1nc(Cl)c3cnc(nc31)N2 [US11780851, Example 23] | 44 nM | 20 nM |
| Cc1c2c(nn1[C@H]1CCCOC1)OCCCn1nc(Cl)c3cnc(nc31)N2 (single isomer, unassigned) [US11780851, Example 60] | 25 nM | 9 nM |
| Cc1c2c(nn1[C@@H]1CCO[C@@H](C)C1)OCCCn1nc(Cl)c3cnc(nc31)N2 [US11780851, Example 19] | 13 nM | 3.9 nM |
| F[C@H]1COCC[C@@H]1n1nc2c(c1Br)Nc1ncc3c(Cl)nn(c3n1)CCCO2 [US11780851, Example 63] | 11 nM | 4 nM |
| Cc1c2c(nn1[C@H]1CCO[C@@H](C)C1)OCCCn1nc(Cl)c3cnc(nc31)N2 [US11780851, Example 51] | 11 nM | 3.6 nM |
| CO[C@H]1CC[C@H](n2nc3c(c2Br)Nc2ncc4c(Cl)nn(c4n2)CCCO3)CC1 [US11780851, Example 50] | 10 nM | 5.3 nM |
| Cc1c2c(nn1C1CC1(F)F)OCCCn1nc(Cl)c3cnc(nc31)N2 (centres undefined) [US11780851, Example 39] | 19 nM | 7.8 nM |
| Cc1c([N+](=O)[O-])c(OCCCn2nc(Cl)c3cnc(Cl)nc32)nn1[C@H]1C[C@@H](C)O[C@@H](C)C1 [US11780851, Example 41] | 17 nM | 6.4 nM |
| CCc1c2c(nn1[C@@H]1CCOCC1F)OCCCn1nc(Cl)c3cnc(nc31)N2 (some centres undefined) [US11780851, Example 55] | 5.6 nM | 1.5 nM |
| Cc1c2c(nn1[C@@H]1CCCOCC1)OCCCn1nc(Cl)c3cnc(nc31)N2 [US11780851, Example 59] | 17 nM | 6.2 nM |
| Cc1c2c(nn1[C@@H]1CCCCOC1)OCCCn1nc(Cl)c3cnc(nc31)N2 [US11780851, Example 29] | 25 nM and 14 nM | 7.3 nM and 4.3 nM |

| Compound | IC50 [1] | IC50 [2] |
| --- | --- | --- |
| Cc1c2c(nn1C1CCOC[C@]1(C)F)OCCCn1nc(Cl)c3cnc(nc31)N2 (some centres undefined) [US11780851, Example 48] | 90 nM | 18 nM |
| Cc1c2c(nn1C1CCOC[C@@]1(C)F)OCCCn1nc(Cl)c3cnc(nc31)N2 (some centres undefined) [US11780851, Example 47] | 13 nM | 3.1 nM |
| Cc1c2c(nn1CC1(C)COC1)OCCCn1nc(Cl)c3cnc(nc31)N2 [US11780851, Example 12] | 32 nM | 12 nM |
| Cc1c2c(nn1[C@H]1CCOC[C@H]1C)OCCCn1nc(Cl)c3cnc(nc31)N2 [US11780851, Example 21] | 10 nM | 3.7 nM |
| Cc1c2c(nn1[C@@H]1CCO[C@H](C)C1)OCCCn1nc(Cl)c3cnc(nc31)N2 [US11780851, Example 52] | 19 nM | 10 nM |
| Cc1c2c(nn1C1C3COCC31)OCCCn1nc(Cl)c3cnc(nc31)N2 (centres undefined) [US11780851, Example 38] | 28 nM | 11 nM |
| Cc1c2c(nn1[C@@H]1CCCOC1)OCCCn1nc(Cl)c3cnc(nc31)N2 [US11780851, Example 61] | 9.2 nM | 2.2 nM |
| Cc1c2c(nn1[C@@H]1CCOC[C@H]1C)OCCCn1nc(Cl)c3cnc(nc31)N2 [US11780851, Example 22] | 10 nM | 3.5 nM |
| Cc1c2c(nn1C1CC3CCC(C1)O3)OCCCn1nc(Cl)c3cnc(nc31)N2 (centres undefined) [US11780851, Example 44] | 13 nM | 4.3 nM |
| Clc1nn2c3nc(ncc13)Nc1c(nn([C@H]3CCOC4(CC4)C3)c1Br)OCCC2 [US11780851, Example 64] | 11 nM | 5 nM |
| Cc1c([N+](=O)[O-])c(OCCCn2nc(Cl)c3cnc(Cl)nc32)nn1C1CCOCC1 [US11780851, Example 15] | 9.6 nM and 6.8 nM | – |
| Cc1c2c(nn1[C@@H]1CCOC(C)(C)C1)OCCCn1nc(Cl)c3cnc(nc31)N2 [US11780851, Example 43] | 17 nM | 5.3 nM |
| Cc1c2c(nn1C1CCCCOC1)OCCCn1nc(Cl)c3cnc(nc31)N2 (centres undefined) [US11780851, Example 30] | 12 nM | 4 nM |
| Cc1c2c(nn1C1(C(N)=O)CC1)OCCCn1nc(Cl)c3cnc(nc31)N2 [US11780851, Example 36] | 23 nM | 7.2 nM |
| F[C@@H]1COCC[C@H]1n1nc2c(c1Br)Nc1ncc3c(Cl)nn(c3n1)CCCO2 [US11780851, Example 62] | 17 nM | 5.9 nM |
| Cc1c2c(nn1[C@H]1CCOC[C@@H]1F)OCCCn1nc(Cl)c3cnc(nc31)N2 [US11780851, Example 31] | 5.6 nM | 2.4 nM |
| Cc1c2c(nn1C13CC(C(N)=O)(C1)C3)OCCCn1nc(Cl)c3cnc(nc31)N2 [US11780851, Example 33] | 18 nM | 5.9 nM |
